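1) Cells in 96-well plates. 2) Compound, 48 h, 5 concentrations. 3) Linear interpolation between surrounding doses. 4) Unreached endpoint = highest concentration. Abbreviation: GI50, concentration required for 50% inhibition of growth.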 Activity calls are given as the source filed them. Cut-off read from the data, not from the text of the source: active = GI50 up to about 1.1 µM and inactive = higher.
Columns and labels:
Assay in all cases: NCI-60 cell line screen, 48 h
DMS-273 = test system: DMS-273
KM-20L2 = test system: KM-20L2
HOP-18 = test system: HOP-18
DMS-114 = test system: DMS-114
LXFL 529 = test system: LXFL 529
SNB-78 = test system: SNB-78
DLD-1 = test system: DLD-1
XF498 = test system: XF498
RXF 631 = test system: RXF 631

Row | Structure (SMILES) | GI50 (DMS-273) | GI50 (KM-20L2) | GI50 (HOP-18) | GI50 (DMS-114) | GI50 (LXFL 529) | GI50 (SNB-78) | GI50 (DLD-1) | GI50 (XF498) | GI50 (RXF 631)
1 | COc1ccc(/N=C/c2ccc(N(CCC#N)S(=O)(=O)c3ccccc3)cc2)cc1 | > 100 µM (inactive) | > 100 µM (inactive) | > 100 µM (inactive) | > 100 µM (inactive) | > 100 µM (inactive) | > 100 µM (inactive) | > 100 µM (inactive) | > 100 µM (inactive) | > 100 µM (inactive)
2 | CCCCOC(=O)N[C@H]1CCc2cc(OC)c(OC)c(OC)c2-c2ccc(SC)c(=O)cc21 | < 0.01 µM (active) | < 0.01 µM (active) | 21.4 µM (inactive) | < 0.01 µM (active) | < 0.01 µM (active) | < 0.01 µM (active) | < 0.01 µM (active) | < 0.01 µM (active) | –
3 | CCCCCCCSCC1C(=O)C23C(O)C1CCC2C12COC3(O)C(O)C1C(C)(C)CCC2O (stereo not drawn) | 12.6 µM (inactive) | 12 µM (inactive) | 12.5 µM (inactive) | 8.38 µM (inactive) | 2.37 µM (inactive) | 15.3 µM (inactive) | 14.4 µM (inactive) | 18.5 µM (inactive) | 5.04 µM (inactive)
4 | O=C(Nc1c(O)[nH]c(=S)[nH]c1=O)c1ccccc1F | – | > 100 µM (inactive) | > 100 µM (inactive) | > 100 µM (inactive) | > 100 µM (inactive) | > 100 µM (inactive) | > 100 µM (inactive) | – | > 100 µM (inactive)
5 | C/C(=N/NC(=O)C(N)=O)C(CC(C(=O)Nc1ccccc1C)/C(C)=N\NC(=O)C(N)=O)C(=O)Nc1ccccc1C (stereo not drawn) | – | > 100 µM (inactive) | – | – | > 100 µM (inactive) | > 100 µM (inactive) | > 100 µM (inactive) | – | –
6 | Cc1c(C)c2cc3c(=O)ccoc3c(C)c2oc1=O | – | > 100 µM (inactive) | 41.6 µM (inactive) | 48.3 µM (inactive) | 80.4 µM (inactive) | > 100 µM (inactive) | – | – | 83 µM (inactive)
7 | COc1ccccc1NC(=O)C1=C(C)NC(C)=C(C(=O)Nc2ccccc2OC)C1c1ccco1 | 4.14 µM (inactive) | 3.76 µM (inactive) | 3.31 µM (inactive) | 2.87 µM (inactive) | 5.15 µM (inactive) | 9.1 µM (inactive) | 4.27 µM (inactive) | 6.01 µM (inactive) | 6.18 µM (inactive)
8 | Cc1cc(C)c(C(=O)/C(=C/c2ccccc2)c2ccccc2)c(C)c1 | – | 42.2 µM (inactive) | > 100 µM (inactive) | 35.6 µM (inactive) | 34.8 µM (inactive) | – | > 100 µM (inactive) | 19.2 µM (inactive) | 29.9 µM (inactive)
9 | Cc1c(/N=C\c2ccc(N(CCC#N)CCC#N)cc2)c(=O)n(-c2ccccc2)n1C | > 88.5 µM (inactive) | > 100 µM (inactive) | 25.2 µM (inactive) | > 100 µM (inactive) | > 100 µM (inactive) | 51.6 µM (inactive) | > 100 µM (inactive) | 28 µM (inactive) | –
10 | CCSC1=CC(Cc2ccc(OC)cc2)N(C(=O)OC)C1 (stereo not drawn) | 70 µM (inactive) | > 100 µM (inactive) | > 100 µM (inactive) | 23.4 µM (inactive) | 91.4 µM (inactive) | > 100 µM (inactive) | 81.8 µM (inactive) | > 100 µM (inactive) | > 100 µM (inactive)
11 | COc1ccc2c(c1)CC[C@@H]1C2CC[C@]2(C)C(=O)NC(=O)CC12 (stereo partly drawn) | 65.8 µM (inactive) | > 100 µM (inactive) | 26 µM (inactive) | – | 59.3 µM (inactive) | > 100 µM (inactive) | > 100 µM (inactive) | > 100 µM (inactive) | –
12 | COC(=O)N/N=C(\C)c1c(O)cc(C)oc1=O | – | 22.1 µM (inactive) | – | – | 10.8 µM (inactive) | > 100 µM (inactive) | 30.1 µM (inactive) | – | > 100 µM (inactive)
13 | CCCCOC(=O)NC(=O)c1cn(CCCOC(=O)NCCCCCCNC(=O)OCCCn2cc(C(=O)NC(=O)OCCCC)c(=O)[nH]c2=O)c(=O)[nH]c1=O | > 100 µM (inactive) | > 100 µM (inactive) | > 100 µM (inactive) | > 100 µM (inactive) | 90.4 µM (inactive) | > 100 µM (inactive) | > 100 µM (inactive) | 18.7 µM (inactive) | > 100 µM (inactive)
14 | CCOc1ccc(/N=C/c2c3ccccc3nc3ccccc23)cc1 | 32.4 µM (inactive) | 40.2 µM (inactive) | > 100 µM (inactive) | 25.1 µM (inactive) | 24.7 µM (inactive) | > 100 µM (inactive) | 24.7 µM (inactive) | 65.6 µM (inactive) | > 100 µM (inactive)
15 | S=c1sc2c(S)nc(S)nc2n1-c1ccccc1 | > 100 µM (inactive) | > 100 µM (inactive) | > 100 µM (inactive) | 75.5 µM (inactive) | > 100 µM (inactive) | > 100 µM (inactive) | > 100 µM (inactive) | > 100 µM (inactive) | –
16 | O=[As]O | 24.2 µM (inactive) | 48.3 µM (inactive) | – | 13.1 µM (inactive) | 16.2 µM (inactive) | 12.6 µM (inactive) | 17.8 µM (inactive) | 17.5 µM (inactive) | 10.1 µM (inactive)
17 | O=C1C2C3C=C4c5ccccc5N(c5ccccc5)C4(C2C(=O)N1c1ccc(Br)cc1)[C@H]1C(=O)N(c2ccc(Br)cc2)C(=O)[C@@H]31 (stereo partly drawn) | > 100 µM (inactive) | > 100 µM (inactive) | > 100 µM (inactive) | – | 83.8 µM (inactive) | > 100 µM (inactive) | > 100 µM (inactive) | > 100 µM (inactive) | –
18 | COC(=O)[C@@]12OC[C@]34C([C@@H](O)C1O)[C@@]1(C)CC(=O)C(OC(=O)/C=C(/c5ccccc5)C(F)(F)F)=C(C)C1C[C@H]3OC(=O)[C@H](O)[C@H]42 (stereo partly drawn) | 3.44 µM (inactive) | 8.61 µM (inactive) | 30.1 µM (inactive) | 4.27 µM (inactive) | 7.35 µM (inactive) | 11.2 µM (inactive) | 7.41 µM (inactive) | 9.82 µM (inactive) | –
19 | COc1cc2c(cc1OC)C(OC)N(C)c1c-2ccc2cc3c(cc12)OCO3 (stereo not drawn) | 1.11 µM (active) | 0.558 µM (active) | 21.6 µM (inactive) | 1.17 µM (inactive) | – | 2.67 µM (inactive) | 9.68 µM (inactive) | 0.895 µM (active) | –
20 | CCc1ccc(/C=C\c2cc(OC)c(OC)c(OC)c2)cc1 | 0.305 µM (active) | 0.0342 µM (active) | 0.48 µM (active) | 0.0508 µM (active) | 0.211 µM (active) | 0.15 µM (active) | 0.378 µM (active) | – | –
21 | C=C(C)[C@H]1Cc2c(ccc3c2O[C@@H]2COc4cc(OC)c(OC)cc4[C@@H]2C3=O)O1 [ROTENONE] | 0.0378 µM (active) | 0.128 µM (active) | – | < 0.01 µM (active) | 0.0368 µM (active) | 0.456 µM (active) | 0.241 µM (active) | 0.055 µM (active) | –

Source: ChEMBL document CHEMBL1201862, “PubChem BioAssay data set” (2004)
